Consider 18 compounds from paper PMC10418735, “Lipophilic Studies and In Silico ADME Profiling of Biologically Active 2-Aminothiazol-4(5H)-one Derivatives” (International Journal of Molecular Sciences, 2023).

A short description of data set [1]: Lipophilicity by RP-HPLC (methanol/water, RP-18 column). The class given is physicochemical. As to conditions: for −S (slope of the regression curve), RP–HPLC / log kw: methanol/water, RP-HPLC; for log kw: extrapolated to zero methanol concentration, 25 °C; for Φ0 (chromatographic lipophilicity parameter), RP–HPLC: Φ0 = −log kw/S. The procedure:
The HPLC experiments were performed on the Shimadzu HPLC system (Kyoto, Japan) equipped with solvent delivery pump LC-20AD, UV–VIS detector model SPD-20A, degasser model DGU-20A5, a column oven model CTO-20A, and a column Superspher® 100 RP-18 (4 μm), Merck (Darmstadt, Germany). Methanol and water for HPLC from POCH (Gliwice, Poland) were used as solvents. Mobile phase methanol/water varied in the various ratios. Methanol concentration expressed as volume fraction v/v, varied in the range from 0.55 to 0.95 in constant steps of 0.05. Compounds 1–28 were dissolved in methanol (1 mg/mL). The mobile phase flow rate was 0.7 mL/min. The injection volume was 0.02 mL. All analyzes were performed at 25 °C. Experiments were performed in triplicate with similar results.
The retention coefficient k was calculated from the following relationship:(1) k=tr/tm−1, where tr [min]—retention time, and tm [min]—time for dead volume (measured by use of uracil).
To determine the linear relationship between the values of the log k parameter and the concentration of methanol in the mobile phase, the Soczewiński–Wachtmeister equation was used:(2) logk= log kw+SΦ, where log kw —value extrapolated to zero methanol concentration, Φ —methanol concentration in the mobile phase (volume fraction v/v), and S—the slope of the regression curve.
The parameter Φ0 was calculated from the equation:(3) Φ0=−log kw/S.

Data set [2] can be described thus: Lipophilicity by RP-TLC (methanol/water, HPTLC 60RP-18 plates). As to conditions: for −S (slope of the regression curve), RP–TLC / RM0: methanol/water, RP-TLC; for RM0: extrapolated to zero methanol concentration, 22 °C; for Φ0 (chromatographic lipophilicity parameter), RP–TLC: Φ0 = −RM0/S. The class given is physicochemical. The procedure: Specifically, 10 × 10 cm plates with silica gel HPTLC 60RP-18 WF254s (Merck, Darmstadt, Niemcy) were used as the stationary phase. Methanol and water for HPLC from POCH (Gliwice, Poland) were used as solvents. Methanol concentration expressed as volume fraction v/v, varied in the range from 0.5 to 0.7 in constant steps of 0.05. Test compounds were dissolved in methanol (2 mg/mL), and then samples (0.01 mL) of each were applied to plates, which were developed in a horizontal DS chamber (Chromdes, Lublin, Poland).
The developing distance was 8 cm. Developed plates were air-dried and observed under 254 nm ultraviolet lamp. All analyzes were performed at 22 °C. Experiments were performed in triplicate with similar results.
For all the compounds, the relative lipophilicity RM values for five methanol–water mobile phases were calculated by the use of the following formula:(4) RM=log[1−RF/RF].
The linear relationship between the RM values and the concentration of methanol in the mobile phase to determine the lipophilicity parameters RM0 is described by the following equation:(5) RM=RM0+SΦ, where Φ —methanol concentration in the mobile phase (volume fraction v/v), and S—the slope of the regression curve.
The quantity Φ0 was calculated from the following equation:(6) Φ0=−RM0/S.

Consider `CC(C)C1SC(NC(C)(C)C)=NC1=O` (centres unmarked) [Compound 13], for which, in data set [1], the “−S (slope of the regression curve), RP–HPLC” value was determined as 3.585; the log kw is recorded as 2.39; the “Φ0 (chromatographic lipophilicity parameter), RP–HPLC” value was found to be 0.667. In data set [2], the “−S (slope of the regression curve), RP–TLC” value was determined as 2.095; the RM0 is 1.46; the “Φ0 (chromatographic lipophilicity parameter), RP–TLC” value came out at 0.699.
`CCCC1SC(NC(C)C)=NC1=O` (centres unmarked) [Compound 3]: in data set [1], the “−S (slope of the regression curve), RP–HPLC” value is given as 3.494; the log kw is given as 2.28; the “Φ0 (chromatographic lipophilicity parameter), RP–HPLC” value is 0.652. Besides, in data set [2], the “−S (slope of the regression curve), RP–TLC” value was 2.422; the RM0 is on record as 1.63; the “Φ0 (chromatographic lipophilicity parameter), RP–TLC” value is 0.673.
For `O=C1CSC(NC23CC4CC(CC(C4)C2)C3)=N1` [Compound 28, 2-(Adamantylamino)thiazol-4(5H)-one], in data set [1], the “−S (slope of the regression curve), RP–HPLC” value came out at 3.783; the log kw was 2.87; the “Φ0 (chromatographic lipophilicity parameter), RP–HPLC” value stood at 0.759. Further, in data set [2], the “−S (slope of the regression curve), RP–TLC” value is 2.482; the RM0 is on record as 2.06; the “Φ0 (chromatographic lipophilicity parameter), RP–TLC” value came to 0.832.
On to `CC(C)C1SC(NC23CC4CC(CC(C4)C2)C3)=NC1=O` (centres unmarked) [Compound 22], for which, in data set [1], the “−S (slope of the regression curve), RP–HPLC” value was 4.744; the log kw is reported as 3.94; the “Φ0 (chromatographic lipophilicity parameter), RP–HPLC” value came to 0.830. Besides, in data set [2], the “−S (slope of the regression curve), RP–TLC” value is 3.175 and the RM0 was 2.67.
On to `CC(C)(C)NC1=NC(=O)C(c2ccc(Br)cc2)S1` (centres unmarked) [Compound 16], for which, in data set [1], the “−S (slope of the regression curve), RP–HPLC” value is reported as 4.537; the log kw is on record as 3.38; the “Φ0 (chromatographic lipophilicity parameter), RP–HPLC” value was found to be 0.745. In addition, in data set [2], the “−S (slope of the regression curve), RP–TLC” value is reported as 4.131; the RM0 is 3.20; the “Φ0 (chromatographic lipophilicity parameter), RP–TLC” value is reported as 0.774.
On to `CC(C)NC1=NC(=O)C(c2ccccc2)S1` (centres unmarked) [Compound 6], for which, in data set [1], the “−S (slope of the regression curve), RP–HPLC” value is given as 4.3069; the log kw is recorded as 2.84; the “Φ0 (chromatographic lipophilicity parameter), RP–HPLC” value is 0.659. In addition, in data set [2], the “−S (slope of the regression curve), RP–TLC” value is on record as 2.049; the RM0 is 1.58; the “Φ0 (chromatographic lipophilicity parameter), RP–TLC” value stood at 0.771.
Turning to `O=C1N=C(NC23CC4CC(CC(C4)C2)C3)SC12CCC2` [Compound 27], in data set [1], the “−S (slope of the regression curve), RP–HPLC” value is 4.383; the log kw is listed as 3.66; the “Φ0 (chromatographic lipophilicity parameter), RP–HPLC” value turned out to be 0.835. In data set [2], the “−S (slope of the regression curve), RP–TLC” value came out at 3.025; the RM0 is 2.56; the “Φ0 (chromatographic lipophilicity parameter), RP–TLC” value amounted to 0.847.
`CCC1SC(NC(C)(C)C)=NC1=O` (centres unmarked) [Compound 11]: in data set [1], the “−S (slope of the regression curve), RP–HPLC” value is reported as 3.073; the log kw was 1.88; the “Φ0 (chromatographic lipophilicity parameter), RP–HPLC” value is 0.612. In data set [2], the “−S (slope of the regression curve), RP–TLC” value was 2.478; the RM0 was 1.59; the “Φ0 (chromatographic lipophilicity parameter), RP–TLC” value amounted to 0.643.
As to `CC(C)NC1=NC(=O)C2(CCCCC2)S1` [Compound 8], in data set [1], the “−S (slope of the regression curve), RP–HPLC” value is given as 4.170; the log kw is reported as 2.97; the “Φ0 (chromatographic lipophilicity parameter), RP–HPLC” value is given as 0.712. Further, in data set [2], the “−S (slope of the regression curve), RP–TLC” value worked out at 2.877; the RM0 is recorded as 2.04; the “Φ0 (chromatographic lipophilicity parameter), RP–TLC” value was 0.709.
On to `CCCC1SC(NC(C)(C)C)=NC1=O` (centres unmarked) [Compound 12], for which, in data set [1], the “−S (slope of the regression curve), RP–HPLC” value is 3.606; the log kw is 2.46; the “Φ0 (chromatographic lipophilicity parameter), RP–HPLC” value was 0.682. Also, in data set [2], the “−S (slope of the regression curve), RP–TLC” value stood at 2.426; the RM0 is reported as 1.71; the “Φ0 (chromatographic lipophilicity parameter), RP–TLC” value is listed as 0.703.
`O=C1N=C(NC23CC4CC(CC(C4)C2)C3)SC1c1ccccc1` (centres unmarked) [Compound 24, 2-(adamantan-1-ylamino)-5-phenylthiazol-4(5H)-one]: in data set [1], the “−S (slope of the regression curve), RP–HPLC” value turned out to be 5.024; the log kw is given as 4.13; the “Φ0 (chromatographic lipophilicity parameter), RP–HPLC” value was 0.822. In data set [2], the “−S (slope of the regression curve), RP–TLC” value is on record as 4.203; the RM0 is given as 3.31; the “Φ0 (chromatographic lipophilicity parameter), RP–TLC” value stood at 0.787.
On to `CC(C)NC1=NC(=O)C(C)S1` (centres unmarked) [Compound 1, 5-methyl-2-isopropylaminothiazol-4(5H)-one], for which, in data set [1], the “−S (slope of the regression curve), RP–HPLC” value is reported as 2.975; the log kw was 1.35; the “Φ0 (chromatographic lipophilicity parameter), RP–HPLC” value is given as 0.454. Also, in data set [2], the “−S (slope of the regression curve), RP–TLC” value came to 1.280; the RM0 was 0.94; the “Φ0 (chromatographic lipophilicity parameter), RP–TLC” value turned out to be 0.734.
Turning to `CC(C)(C)NC1=NC(=O)C2(CCCCC2)S1` [Compound 17, 2-(tert-butylamino)-1-thia-3-azaspiro[4.5]dec-2-en-4-one], in data set [1], the “−S (slope of the regression curve), RP–HPLC” value amounted to 3.904; the log kw is given as 2.86; the “Φ0 (chromatographic lipophilicity parameter), RP–HPLC” value came to 0.732. Moreover, in data set [2], the “−S (slope of the regression curve), RP–TLC” value came to 2.477; the RM0 is 1.89; the “Φ0 (chromatographic lipophilicity parameter), RP–TLC” value is given as 0.762.
Consider `CC(C)NC1=NC(=O)C(C)(C)S1` [Compound 5], for which, in data set [1], the “−S (slope of the regression curve), RP–HPLC” value is 3.400; the log kw is recorded as 1.94; the “Φ0 (chromatographic lipophilicity parameter), RP–HPLC” value is 0.571. Besides, in data set [2], the “−S (slope of the regression curve), RP–TLC” value turned out to be 1.903; the RM0 is reported as 1.20; the “Φ0 (chromatographic lipophilicity parameter), RP–TLC” value came to 0.629.
Take `CC1SC(NC23CC4CC(CC(C4)C2)C3)=NC1=O` (centres unmarked) [Compound 19]: in data set [1], the “−S (slope of the regression curve), RP–HPLC” value is recorded as 4.099; the log kw was 3.22; the “Φ0 (chromatographic lipophilicity parameter), RP–HPLC” value was found to be 0.786. In addition, in data set [2], the “−S (slope of the regression curve), RP–TLC” value came out at 3.148; the RM0 is on record as 2.55; the “Φ0 (chromatographic lipophilicity parameter), RP–TLC” value stood at 0.810.
`CCC1SC(NC23CC4CC(CC(C4)C2)C3)=NC1=O` (centres unmarked) [Compound 20]: in data set [1], the “−S (slope of the regression curve), RP–HPLC” value was determined as 4.437; the log kw was 3.6; the “Φ0 (chromatographic lipophilicity parameter), RP–HPLC” value came out at 0.811. In data set [2], the “−S (slope of the regression curve), RP–TLC” value worked out at 2.678; the RM0 is recorded as 2.30; the “Φ0 (chromatographic lipophilicity parameter), RP–TLC” value is 0.860.
`CC(C)(C)NC1=NC(=O)C(c2ccccc2)S1` (centres unmarked) [Compound 15]: in data set [1], the “−S (slope of the regression curve), RP–HPLC” value is on record as 4.449; the log kw is 3.25; the “Φ0 (chromatographic lipophilicity parameter), RP–HPLC” value turned out to be 0.730. For the same compound, in data set [2], the “−S (slope of the regression curve), RP–TLC” value came out at 4.293; the RM0 was 3.17; the “Φ0 (chromatographic lipophilicity parameter), RP–TLC” value turned out to be 0.739.
On to `CC(C)NC1=NC(=O)C(c2ccc(Br)cc2)S1` (centres unmarked) [Compound 7], for which, in data set [1], the “−S (slope of the regression curve), RP–HPLC” value is listed as 4.422; the log kw is 3.22; the “Φ0 (chromatographic lipophilicity parameter), RP–HPLC” value came to 0.728. Besides, in data set [2], the “−S (slope of the regression curve), RP–TLC” value was found to be 3.870; the RM0 is listed as 2.85; the “Φ0 (chromatographic lipophilicity parameter), RP–TLC” value is reported as 0.736.
